Experimental data as given in ChEMBL document CHEMBL4414676, “Quinazoline-Containing Indole Alkaloids from the Marine-Derived Fungus Aspergillus sp. HNMF114” (J Nat Prod, 2019).
Activity calls are given as the source filed them. The calls are words filed in the database; no cut-off is given here.

Assays:
HeLa = assay: Antiproliferative activity against human HeLa cells after 24 to 72 hrs by MTT assay; type: functional, cell-based
Streptococcus agalactiae = assay: Antibacterial activity against Streptococcus agalactiae after 24 hrs by two fold dilution assay; type: functional, organism-based
K562 = assay: Antiproliferative activity against human K562 cells after 24 to 72 hrs by MTT assay; type: functional, cell-based
SGC-7901 = assay: Antiproliferative activity against human SGC7901 cells after 24 to 72 hrs by MTT assay; type: functional, cell-based
Staphylococcus aureus = assay: Antibacterial activity against Staphylococcus aureus after 24 hrs by two fold dilution assay; type: functional, organism-based
Escherichia coli = assay: Antibacterial activity against Escherichia coli after 24 hrs by two fold dilution assay; type: functional, organism-based
Bacillus subtilis = assay: Antibacterial activity against Bacillus subtilis after 24 hrs by two fold dilution assay; type: functional, organism-based
A549 = assay: Antiproliferative activity against human A549 cells after 24 to 72 hrs by MTT assay; type: functional, cell-based
[1] = Inhibition of quorum sensing in C6-HSL-induced Chromobacterium violaceum CV026 assessed as […] by measuring minimum inhibitory dose per well after 18 hrs by well diffusion method

SMILES | Activity (HeLa) | Activity (Streptococcus agalactiae) | Activity (K562) | Activity (SGC-7901) | Activity (Staphylococcus aureus) | Activity (Escherichia coli) | Activity (Bacillus subtilis) | Activity (A549) | MIC [1] [µg]
O=C1N[C@H]2c3nc4ccccc4c(=O)n3[C@@H]1C[C@@]21c2ccccc2N2C(=O)[C@@H]3CCCN3[C@H]21 | inactive | inactive | inactive | inactive | inactive | inactive | inactive | inactive | 
CC(=O)OC(c1nc2ccccc2c(=O)n1[C@H]1C[C@@]2(OC1=O)C(=O)Nc1ccccc12)C(C)C (some centres not stated) | inactive | inactive | inactive | inactive | inactive | inactive | inactive | inactive | 32
CCC(=O)O[C@H](c1nc2ccccc2c(=O)n1[C@@H]1C[C@]2(OC1=O)c1ccccc1N1C(=O)C(C)(C)N(O)[C@H]12)C(C)C | inactive | inactive | inactive | inactive | inactive | inactive | inactive | inactive | 
CC1(C)C(=O)N2c3ccccc3[C@@]3(C[C@H]4n5c(nc6ccccc6c5=O)C(=O)C(C)(C)[C@@]4(O)O3)[C@@H]2N1O | inactive | inactive | inactive | inactive | inactive | inactive | inactive | inactive | 
CC(C)[C@@]1(O)NC(=O)[C@@H](C[C@]2(O)c3ccccc3N3C(=O)C(C)(C)N(O)[C@H]32)n2c1nc1ccccc1c2=O | inactive | inactive | inactive | inactive | inactive | inactive | inactive | inactive | 
CC(C)[C@@H]1NC(=O)[C@@H](C[C@]2(O)c3ccccc3N3C(=O)C(C)(C)N[C@H]32)n2c1nc1ccccc1c2=O | inactive | inactive | inactive | inactive | inactive | inactive | inactive | inactive | 
CC(=O)O[C@@H](c1nc2ccccc2c(=O)n1[C@H]1C[C@]2(OC1=O)c1ccccc1N1C(=O)C(C)(C)N[C@H]12)C(C)C | inactive | inactive | inactive | inactive | inactive | inactive | inactive | inactive | 
CC(=O)OC(c1nc2ccccc2c(=O)n1[C@@H]1C[C@]2(OC1=O)C(=O)Nc1ccccc12)C(C)C (some centres not stated) | inactive | inactive | inactive | inactive | inactive | inactive | inactive | inactive | 32
CC1(C)C(=O)N2c3ccccc3[C@@]3(C[C@H](n4cnc5ccccc5c4=O)C(=O)O3)[C@@H]2N1O | inactive | inactive | inactive | inactive | inactive | inactive | inactive | inactive | 
CC(=O)O[C@H](c1nc2ccccc2c(=O)n1[C@@H]1C[C@]2(OC1=O)c1ccccc1N1C(=O)C(C)(C)N(O)[C@H]12)C(C)C | inactive | inactive | inactive | inactive | inactive | inactive | inactive | inactive | 
CC(=O)O[C@H](c1nc2ccccc2c(=O)n1[C@@H]1C[C@]2(OC1=O)c1ccccc1N1C(=O)C(C)(C)N[C@H]12)C(C)C | inactive | inactive | inactive | inactive | inactive | inactive | inactive | inactive | 
O=C1N[C@@H]2c3nc4ccccc4c(=O)n3[C@@H]1C[C@@]21C(=O)Nc2ccccc21 | inactive | inactive | inactive | inactive | inactive | inactive | inactive | inactive | 
CC(C)[C@H](O)c1nc2ccccc2c(=O)n1[C@H]1C[C@]2(OC1=O)c1ccccc1N1C(=O)C(C)(C)N(O)[C@H]12 | inactive | inactive | inactive | inactive | inactive | inactive | inactive | inactive | 
CC(C)[C@@H](O)c1nc2ccccc2c(=O)n1[C@H]1C[C@]2(OC1=O)c1ccccc1N1C(=O)C(C)(C)N(O)[C@H]12 | inactive | inactive | inactive | inactive | inactive | inactive | inactive | inactive | 
CC(C)=C1NC(=O)[C@@H](C[C@@]2(O)C(=O)Nc3ccccc32)n2c1nc1ccccc1c2=O | inactive | inactive | inactive | inactive | inactive | inactive | inactive | inactive | 16
O=C1C=C(Br)/C(=C/Br)O1 |  |  |  |  |  |  |  |  | 1
CC(C)[C@H](O)c1nc2ccccc2c(=O)n1[C@H]1C[C@]2(OC1=O)c1ccccc1N1C(=O)C(C)(C)N(S(C)(=O)=O)[C@H]12 | inactive | inactive | inactive | inactive | inactive | inactive | inactive | inactive | 
